The nature of the series: recombinant barcode read abundance after kanamycin selection (control-corrected) (log10(CPM+1)); higher = more efficient recombination; sequences stand for … in AGTGCAGAGAAAATCGGCCAGTTTTCTCTGCCTGCAGTCCGCATGCCGT…ATTTATGCAGCGGACTGCCTTTCTCCCAAAGTGATAAACCGGACAGTATCATGGACCGGTTTTCCCGGTAATCCGTATTTGCAAGGTTGGTTTCACT; site = the 11-nt target. How it is done:
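Same pooled E. coli target screen (IS621 bridge recombinase, kanamycin selection, control-corrected CPM, mean of 2 biological replicates). Here the two core-binding nucleotides of the LTG and RTG of the bridge RNA target-binding loop are mutated. Target and donor CT cores are held constant, and the other 9 guide positions match the target. The target is read from the library oligo sequence. Molecule = full bridge RNA written as DNA: nt 1-80 from the library oligo, rest WT scaffold.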

On to “AGGCCTCCTTGGGTTCTAACCTGTTGCCTAC [AGGCCTCCTAG_LTGcore_CT_RTGcore_GT] (site AGGCCTCCTAG) (LTG core: CT, RTG core: GT)”, for which the “recombinant barcode read abundance (log10)” value turned out to be 1.06.
As to “AGGCCTCCTTGGGTTCTAACCTGTTGCCTCC [AGGCCTCCTAG_LTGcore_CT_RTGcore_GG] (site AGGCCTCCTAG) (LTG core: CT, RTG core: GG)”, the “recombinant barcode read abundance (log10)” value was 0.102.
For “AGGCCTCCTTGGGTTCTAACCTGTTGCCTGA [AGGCCTCCTAG_LTGcore_CT_RTGcore_TC] (site AGGCCTCCTAG) (LTG core: CT, RTG core: TC)” the value was 0.578.
The result for “AGGCCTCCTTGGGTTCTAACCTGTTGCCTGT [AGGCCTCCTAG_LTGcore_CT_RTGcore_AC] (site AGGCCTCCTAG) (LTG core: CT, RTG core: AC)” reads 0.0115; that for “AGGCCTCGATGGGTTCTAACCTGTTGCCTTC [AGGCCTCCTAG_LTGcore_GA_RTGcore_GA] (site AGGCCTCCTAG) (LTG core: GA, RTG core: GA)”, 0.206.
Regarding “AGGCCTCGTTGGGTTCTAACCTGTTGCCTAC [AGGCCTCCTAG_LTGcore_GT_RTGcore_GT] (site AGGCCTCCTAG) (LTG core: GT, RTG core: GT)”, the “recombinant barcode read abundance (log10)” value was 0.0637.
For “AGGCGGGAATGGGTTCTAACCTGTTGCGGAG [AGGCGGGCTCC_LTGcore_AA_RTGcore_CT] (site AGGCGGGCTCC) (LTG core: AA, RTG core: CT)” the value was 0.668; for “AGGCGGGAGTGGGTTCTAACCTGTTGCGGAG [AGGCGGGCTCC_LTGcore_AG_RTGcore_CT] (site AGGCGGGCTCC) (LTG core: AG, RTG core: CT)”, 0.325; for “AGGCGGGCTTGGGTTCTAACCTGTTGCGGCC [AGGCGGGCTCC_LTGcore_CT_RTGcore_GG] (site AGGCGGGCTCC) (LTG core: CT, RTG core: GG)”, 0.367.
The result for “AGGCGGGCTTGGGTTCTAACCTGTTGCGGGC [AGGCGGGCTCC_LTGcore_CT_RTGcore_GC] (site AGGCGGGCTCC) (LTG core: CT, RTG core: GC)” reads 0.249; that for “AGGCGGGCTTGGGTTCTAACCTGTTGCGGGT [AGGCGGGCTCC_LTGcore_CT_RTGcore_AC] (site AGGCGGGCTCC) (LTG core: CT, RTG core: AC)”, 0.945; that for “AGGCGGGCTTGGGTTCTAACCTGTTGCGGTT [AGGCGGGCTCC_LTGcore_CT_RTGcore_AA] (site AGGCGGGCTCC) (LTG core: CT, RTG core: AA)”, 0.0746.
The result for “AGGCGGGGCTGGGTTCTAACCTGTTGCGGAG [AGGCGGGCTCC_LTGcore_GC_RTGcore_CT] (site AGGCGGGCTCC) (LTG core: GC, RTG core: CT)” reads 0.207.
For the sequence “AGGCGGGGTTGGGTTCTAACCTGTTGCGGAC [AGGCGGGCTCC_LTGcore_GT_RTGcore_GT] (site AGGCGGGCTCC) (LTG core: GT, RTG core: GT)”, the “recombinant barcode read abundance (log10)” value was determined as 0.0704.
The result for “AGGCGGGTCTGGGTTCTAACCTGTTGCGGGA [AGGCGGGCTCC_LTGcore_TC_RTGcore_TC] (site AGGCGGGCTCC) (LTG core: TC, RTG core: TC)” reads 0.156.
For “AGGCGGTATTGGGTTCTAACCTGTTGCTTAG [AGGCGGTCTAA_LTGcore_AT_RTGcore_CT] (site AGGCGGTCTAA) (LTG core: AT, RTG core: CT)” the value was 0.127; for “AGGCGGTCATGGGTTCTAACCTGTTGCTTTG [AGGCGGTCTAA_LTGcore_CA_RTGcore_CA] (site AGGCGGTCTAA) (LTG core: CA, RTG core: CA)”, 0.128; for “AGGCGGTCTTGGGTTCTAACCTGTTGCTTAC [AGGCGGTCTAA_LTGcore_CT_RTGcore_GT] (site AGGCGGTCTAA) (LTG core: CT, RTG core: GT)”, 1.26.
The result for “AGGCGGTTTTGGGTTCTAACCTGTTGCTTAA [AGGCGGTCTAA_LTGcore_TT_RTGcore_TT] (site AGGCGGTCTAA) (LTG core: TT, RTG core: TT)” reads 0.0993.
Regarding “AGTCTTAATTGGGTTCTAACCTGTTGCCAAG [AGTCTTACTTG_LTGcore_AT_RTGcore_CT] (site AGTCTTACTTG) (LTG core: AT, RTG core: CT)”, the “recombinant barcode read abundance (log10)” value amounted to 0.295.
The result for “AGTCTTACATGGGTTCTAACCTGTTGCCAAG [AGTCTTACTTG_LTGcore_CA_RTGcore_CT] (site AGTCTTACTTG) (LTG core: CA, RTG core: CT)” reads 0.033; that for “AGTCTTACGTGGGTTCTAACCTGTTGCCAAG [AGTCTTACTTG_LTGcore_CG_RTGcore_CT] (site AGTCTTACTTG) (LTG core: CG, RTG core: CT)”, 0.0383.
For “AGTCTTACTTGGGTTCTAACCTGTTGCCAAA [AGTCTTACTTG_LTGcore_CT_RTGcore_TT] (site AGTCTTACTTG) (LTG core: CT, RTG core: TT)” the value was 0.0465; for “AGTCTTACTTGGGTTCTAACCTGTTGCCACG [AGTCTTACTTG_LTGcore_CT_RTGcore_CG] (site AGTCTTACTTG) (LTG core: CT, RTG core: CG)”, 0.0125; for “AGTCTTACTTGGGTTCTAACCTGTTGCCAGC [AGTCTTACTTG_LTGcore_CT_RTGcore_GC] (site AGTCTTACTTG) (LTG core: CT, RTG core: GC)”, 0.13.
For “AGTCTTACTTGGGTTCTAACCTGTTGCCAGG [AGTCTTACTTG_LTGcore_CT_RTGcore_CC] (site AGTCTTACTTG) (LTG core: CT, RTG core: CC)” the value was 0.196; for “AGTCTTATCTGGGTTCTAACCTGTTGCCAGA [AGTCTTACTTG_LTGcore_TC_RTGcore_TC] (site AGTCTTACTTG) (LTG core: TC, RTG core: TC)”, 0.0509.
“ATGCTTTACTGGGTTCTAACCTGTTGCCTAG [ATGCTTTCTAG_LTGcore_AC_RTGcore_CT] (site ATGCTTTCTAG) (LTG core: AC, RTG core: CT)”: the “recombinant barcode read abundance (log10)” value was 0.0722.
As for “ATGCTTTCATGGGTTCTAACCTGTTGCCTTG [ATGCTTTCTAG_LTGcore_CA_RTGcore_CA] (site ATGCTTTCTAG) (LTG core: CA, RTG core: CA)”, the “recombinant barcode read abundance (log10)” value was found to be 0.1.
The result for “ATGCTTTCGTGGGTTCTAACCTGTTGCCTCG [ATGCTTTCTAG_LTGcore_CG_RTGcore_CG] (site ATGCTTTCTAG) (LTG core: CG, RTG core: CG)” reads 0.295; that for “ATGCTTTCTTGGGTTCTAACCTGTTGCCTAT [ATGCTTTCTAG_LTGcore_CT_RTGcore_AT] (site ATGCTTTCTAG) (LTG core: CT, RTG core: AT)”, 0.128; that for “ATGCTTTCTTGGGTTCTAACCTGTTGCCTGC [ATGCTTTCTAG_LTGcore_CT_RTGcore_GC] (site ATGCTTTCTAG) (LTG core: CT, RTG core: GC)”, 0.295.
For “ATGCTTTCTTGGGTTCTAACCTGTTGCCTGT [ATGCTTTCTAG_LTGcore_CT_RTGcore_AC] (site ATGCTTTCTAG) (LTG core: CT, RTG core: AC)” the value was 0.101; for “ATGCTTTCTTGGGTTCTAACCTGTTGCCTTC [ATGCTTTCTAG_LTGcore_CT_RTGcore_GA] (site ATGCTTTCTAG) (LTG core: CT, RTG core: GA)”, 0.0663.
For “ATGCTTTGGTGGGTTCTAACCTGTTGCCTAG [ATGCTTTCTAG_LTGcore_GG_RTGcore_CT] (site ATGCTTTCTAG) (LTG core: GG, RTG core: CT)” the value was 0.179.
Turning to “ATGCTTTGTTGGGTTCTAACCTGTTGCCTAC [ATGCTTTCTAG_LTGcore_GT_RTGcore_GT] (site ATGCTTTCTAG) (LTG core: GT, RTG core: GT)”, the “recombinant barcode read abundance (log10)” value was 0.302.
The result for “ATGCTTTGTTGGGTTCTAACCTGTTGCCTAG [ATGCTTTCTAG_LTGcore_GT_RTGcore_CT] (site ATGCTTTCTAG) (LTG core: GT, RTG core: CT)” reads 0.0408; that for “ATGTCCCACTGGGTTCTAACCTGTTGCTCAG [ATGTCCCCTGA_LTGcore_AC_RTGcore_CT] (site ATGTCCCCTGA) (LTG core: AC, RTG core: CT)”, 0.172.
For “ATGTCCCCATGGGTTCTAACCTGTTGCTCAG [ATGTCCCCTGA_LTGcore_CA_RTGcore_CT] (site ATGTCCCCTGA) (LTG core: CA, RTG core: CT)” the value was 0.527; for “ATGTCCCCTTGGGTTCTAACCTGTTGCTCTA [ATGTCCCCTGA_LTGcore_CT_RTGcore_TA] (site ATGTCCCCTGA) (LTG core: CT, RTG core: TA)”, 0.107; for “ATGTCCCCTTGGGTTCTAACCTGTTGCTCTC [ATGTCCCCTGA_LTGcore_CT_RTGcore_GA] (site ATGTCCCCTGA) (LTG core: CT, RTG core: GA)”, 0.0163.

(Values after the supplement of paper PMC11208160.)
